Experiments:
[1] = target: GDP-bound NRAS wild-type protein (Homo sapiens, UniProt P01111); assay: Binding to NRAS by surface plasmon resonance (SPR), Single Cycle Kinetics; conditions: KD ratio NRAS/KRAS, SPR
[2] = target: GDP-bound HRAS wild-type protein (Homo sapiens, UniProt P01112); assay: Binding to HRAS by surface plasmon resonance (SPR), Single Cycle Kinetics; conditions: KD ratio HRAS/KRAS, SPR
Sequence of GDP-bound HRAS wild-type protein (P01112 whole entry): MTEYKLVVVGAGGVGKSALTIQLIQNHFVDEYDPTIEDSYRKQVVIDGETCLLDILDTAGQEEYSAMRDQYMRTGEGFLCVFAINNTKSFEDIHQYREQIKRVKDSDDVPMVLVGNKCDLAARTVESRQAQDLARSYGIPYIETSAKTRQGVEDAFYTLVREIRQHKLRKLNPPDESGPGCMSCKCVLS

Sequence of GDP-bound NRAS wild-type protein (P01111 whole entry): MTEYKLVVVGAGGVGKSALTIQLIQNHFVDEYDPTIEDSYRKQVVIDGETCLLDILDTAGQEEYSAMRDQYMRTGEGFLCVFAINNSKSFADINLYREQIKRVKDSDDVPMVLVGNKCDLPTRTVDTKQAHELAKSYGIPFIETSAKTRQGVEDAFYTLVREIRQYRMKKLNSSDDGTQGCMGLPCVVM

SMILES | NRAS/KRAS (ratio of KD value with respect to GDP-bound NRAS wild-type protein to KD value with respect to KRAS) [1] | HRAS/KRAS (ratio of KD value with respect to GDP-bound HRAS wild-type protein to KD value with respect to KRAS) [2]
CC[C@H](C)[C@@H]1NC(=O)[C@H](CC)N(C)C(=O)C[C@@H](C(=O)N(C)C)N(CC)C(=O)[C@H](C2CCCC2)N(C)C(=O)C2(CCC2)NC(=O)[C@@H]2CCCCN2C(=O)[C@H](CCc2cc(F)c(C(F)(F)F)c(F)c2)NC(=O)CN(C)C(=O)[C@H](Cc2ccc(C(F)(F)F)cc2)N2CCCC[C@@H](C2=O)N(C)C(=O)CN(C)C1=O [PP0661] | C (A compound having a KD ratio of 0.1 or more and less than 3 is denoted as C) | B (a compound having 3 or more and less than 10 is denoted as B)
CC[C@H](C)[C@@H]1NC(=O)[C@H](CC(C)C)N(C)C(=O)C[C@@H](C(=O)N2CCOCC2)N(C)C(=O)[C@H](C2CCCC2)N(C)C(=O)C2(CCCC2)NC(=O)[C@@H]2[C@@H](O)CCN2C(=O)[C@H](CCc2cc(F)c(C(F)(F)F)c(F)c2)NC(=O)CN(C)C(=O)[C@H](Cc2ccc(C(F)(F)F)cc2)N2CCCCC[C@@H](C2=O)N(C)C(=O)CN(C)C1=O [PP0662] | B (a compound having 3 or more and less than 10 is denoted as B) | B (a compound having 3 or more and less than 10 is denoted as B)
CCO[C@@H]1C[C@H]2C(=O)NC3(CCC3)C(=O)N(C)[C@@H](C3CCCC3)C(=O)N(C)[C@H](C(=O)N(C)C)CC(=O)N(C)[C@@H](CC)C(=O)N[C@@H]([C@@H](C)CC)C(=O)N(C)CC(=O)N(C)[C@H]3CCCCCN(C3=O)[C@@H](Cc3ccc(C(F)(F)F)cc3)C(=O)N(C)CC(=O)N[C@@H](CCc3cc(F)c(C(F)(F)F)c(F)c3)C(=O)N2C1 [PP0663] | B (a compound having 3 or more and less than 10 is denoted as B) | B (a compound having 3 or more and less than 10 is denoted as B)
C=CC[C@H]1C(=O)N[C@@H]([C@@H](C)CC)C(=O)N(C)CC(=O)N(C)[C@H]2CCCCCN(C2=O)[C@@H](Cc2ccc(C(F)(F)F)cc2)C(=O)N(C)CC(=O)N[C@@H](CCc2cc(F)c(C(F)(F)F)c(F)c2)C(=O)N2C[C@H](OCC)C[C@H]2C(=O)NC2(CCC2)C(=O)N(C)[C@@H](C2CCCC2)C(=O)N(C)[C@H](C(=O)N(C)C)CC(=O)N1C [PP0665] | B (a compound having 3 or more and less than 10 is denoted as B) | B (a compound having 3 or more and less than 10 is denoted as B)
C#CC[C@H]1C(=O)N[C@@H]([C@@H](C)CC)C(=O)N(C)CC(=O)N(C)[C@H]2CCCCCN(C2=O)[C@@H](Cc2ccc(C(F)(F)F)cc2)C(=O)N(C)CC(=O)N[C@@H](CCc2cc(F)c(C(F)(F)F)c(F)c2)C(=O)N2C[C@H](OCC)C[C@H]2C(=O)NC2(CCC2)C(=O)N(C)[C@@H](C2CCCC2)C(=O)N(C)[C@H](C(=O)N(C)C)CC(=O)N1C [PP0666] | B (a compound having 3 or more and less than 10 is denoted as B) | B (a compound having 3 or more and less than 10 is denoted as B)
CCO[C@@H]1C[C@H]2C(=O)NC3(CCC3)C(=O)N(C)[C@@H](C3CCCC3)C(=O)N(C)[C@H](C(=O)N(C)C)CC(=O)N(C)[C@@H](CC3CC3)C(=O)N[C@@H]([C@@H](C)CC)C(=O)N(C)CC(=O)N(C)[C@H]3CCCCCN(C3=O)[C@@H](Cc3ccc(C(F)(F)F)cc3)C(=O)N(C)CC(=O)N[C@@H](CCc3cc(F)c(C(F)(F)F)c(F)c3)C(=O)N2C1 [PP0667] | B (a compound having 3 or more and less than 10 is denoted as B) | B (a compound having 3 or more and less than 10 is denoted as B)
CCO[C@@H]1C[C@H]2C(=O)NC3(CCC3)C(=O)N(C)[C@@H](C3CCCC3)C(=O)N(C)[C@H](C(=O)N(C)C)CC(=O)N(C)[C@@H](CC3CCC3)C(=O)N[C@@H]([C@@H](C)CC)C(=O)N(C)CC(=O)N(C)[C@H]3CCCCCN(C3=O)[C@@H](Cc3ccc(C(F)(F)F)cc3)C(=O)N(C)CC(=O)N[C@@H](CCc3cc(F)c(C(F)(F)F)c(F)c3)C(=O)N2C1 [PP0668] | B (a compound having 3 or more and less than 10 is denoted as B) | B (a compound having 3 or more and less than 10 is denoted as B)
CCO[C@@H]1C[C@H]2C(=O)NC3(CCC3)C(=O)N(C)[C@@H](C3CCCC3)C(=O)N(C)[C@H](C(=O)N(C)C)CC(=O)N(C)[C@@H](CC(C)(C)C)C(=O)N[C@@H]([C@@H](C)CC)C(=O)N(C)CC(=O)N(C)[C@H]3CCCCCN(C3=O)[C@@H](Cc3ccc(C(F)(F)F)cc3)C(=O)N(C)CC(=O)N[C@@H](CCc3cc(F)c(C(F)(F)F)c(F)c3)C(=O)N2C1 [PP0669] | B (a compound having 3 or more and less than 10 is denoted as B) | B (a compound having 3 or more and less than 10 is denoted as B)
CCO[C@@H]1C[C@H]2C(=O)NC3(CCC3)C(=O)N(C)[C@@H](C3CCCC3)C(=O)N(C)[C@H](C(=O)N(C)C)CC(=O)N(C)[C@@H](CC3CCCC3)C(=O)N[C@@H]([C@@H](C)CC)C(=O)N(C)CC(=O)N(C)[C@H]3CCCCCN(C3=O)[C@@H](Cc3ccc(C(F)(F)F)cc3)C(=O)N(C)CC(=O)N[C@@H](CCc3cc(F)c(C(F)(F)F)c(F)c3)C(=O)N2C1 [PP0670] | B (a compound having 3 or more and less than 10 is denoted as B) | B (a compound having 3 or more and less than 10 is denoted as B)
CCO[C@@H]1C[C@H]2C(=O)NC3(CCC3)C(=O)N(C)[C@@H](C3CCCC3)C(=O)N(C)[C@H](C(=O)N(C)C)CC(=O)N(C)[C@@H](CC3CCCCC3)C(=O)N[C@@H]([C@@H](C)CC)C(=O)N(C)CC(=O)N(C)[C@H]3CCCCCN(C3=O)[C@@H](Cc3ccc(C(F)(F)F)cc3)C(=O)N(C)CC(=O)N[C@@H](CCc3cc(F)c(C(F)(F)F)c(F)c3)C(=O)N2C1 [PP0671] | B (a compound having 3 or more and less than 10 is denoted as B) | B (a compound having 3 or more and less than 10 is denoted as B)
CCO[C@@H]1C[C@H]2C(=O)NC3(CCC3)C(=O)N(C)[C@@H](C3CCCC3)C(=O)N(C)[C@H](C(=O)N(C)C)CC(=O)N(C)[C@@H](Cc3ccccc3)C(=O)N[C@@H]([C@@H](C)CC)C(=O)N(C)CC(=O)N(C)[C@H]3CCCCCN(C3=O)[C@@H](Cc3ccc(C(F)(F)F)cc3)C(=O)N(C)CC(=O)N[C@@H](CCc3cc(F)c(C(F)(F)F)c(F)c3)C(=O)N2C1 [PP0672] | B (a compound having 3 or more and less than 10 is denoted as B) | B (a compound having 3 or more and less than 10 is denoted as B)
